Results on one compound are retold here after patent US9067889B2, “Biphenylcarboxamides as ROCK kinase inhibitors” (Amakem NV, priority 2011, dated 2015).

Data set [1] in a line: Stability assay in human plasma. The format is in vitro ADME. The settings on record: 1 μM compound in human plasma, LC-MS/MS. On the procedure: C.2.1. Stability Assay in Human and/or Rat Plasma
Compounds are incubated at a concentration of 1 μM in human plasma (or rat, mice, dog, monkey, minipig or rabbit). Samples are taken at fixed time points and the remnant of compound is determined by LC-MS/MS after protein precipitation.

Data set [2] in a line: Stability assay in rabbit aqueous humor. The settings on record: 1 μM compound in rabbit aqueous humor, LC-MS/MS. The format is in vitro ADME. On the procedure:
C.2.2. Stability Assay in Rabbit Aqueous Humor
Compounds are incubated at a concentration of 1 μM in rabbit aqueous humor (AH). Samples are taken at fixed time points and the remnant of compound is determined by LC-MS/MS after protein precipitation.

Some results are limits rather than exact numbers.

Regarding `COC(=O)Cc1cccc(NC(=O)c2cccc(-c3cc(C(=O)Nc4ccncc4F)ccc3CN)c2)c1` [Compound 1], the “t1/2(min) in human plasma” value in data set [1] was below 60 min. Further, the “t½ rabbit AH” value in data set [2] came to 58 min.
